Experimental data as given in BindingDB's records for doi:10.1016/j.bioorg.2015.03.004 (Suez Canal University, 2015).

Biological target: Vascular endothelial growth factor receptor 2 (Homo sapiens, UniProt P35968)
Assay: ADP-GloTM Assay
Procedure: The protein kinase assays used to determine IC50 value were performed using ADP-GloTM assay kit. The assay was started by incubating the reaction mixture in a 96-well plate at 30 °C for 30 min. After the 30 min incubation period, the assay was terminated by the addition of […] of ADPGloTM Reagent. The 96-well plate was shaken and then incubated for 40 min at ambient temperature, […] of kinase detection reagent was added, the 96-well reaction plate was then read using ADP-GloTM luminescences protocol on GloMaxTM plate reader. Blank control waqs set up that included all the assay components except the addition of appropriate substrate (replace with equal volume of kinase assay buffer).

Vascular endothelial growth factor receptor 2, sequence (P35968 whole entry): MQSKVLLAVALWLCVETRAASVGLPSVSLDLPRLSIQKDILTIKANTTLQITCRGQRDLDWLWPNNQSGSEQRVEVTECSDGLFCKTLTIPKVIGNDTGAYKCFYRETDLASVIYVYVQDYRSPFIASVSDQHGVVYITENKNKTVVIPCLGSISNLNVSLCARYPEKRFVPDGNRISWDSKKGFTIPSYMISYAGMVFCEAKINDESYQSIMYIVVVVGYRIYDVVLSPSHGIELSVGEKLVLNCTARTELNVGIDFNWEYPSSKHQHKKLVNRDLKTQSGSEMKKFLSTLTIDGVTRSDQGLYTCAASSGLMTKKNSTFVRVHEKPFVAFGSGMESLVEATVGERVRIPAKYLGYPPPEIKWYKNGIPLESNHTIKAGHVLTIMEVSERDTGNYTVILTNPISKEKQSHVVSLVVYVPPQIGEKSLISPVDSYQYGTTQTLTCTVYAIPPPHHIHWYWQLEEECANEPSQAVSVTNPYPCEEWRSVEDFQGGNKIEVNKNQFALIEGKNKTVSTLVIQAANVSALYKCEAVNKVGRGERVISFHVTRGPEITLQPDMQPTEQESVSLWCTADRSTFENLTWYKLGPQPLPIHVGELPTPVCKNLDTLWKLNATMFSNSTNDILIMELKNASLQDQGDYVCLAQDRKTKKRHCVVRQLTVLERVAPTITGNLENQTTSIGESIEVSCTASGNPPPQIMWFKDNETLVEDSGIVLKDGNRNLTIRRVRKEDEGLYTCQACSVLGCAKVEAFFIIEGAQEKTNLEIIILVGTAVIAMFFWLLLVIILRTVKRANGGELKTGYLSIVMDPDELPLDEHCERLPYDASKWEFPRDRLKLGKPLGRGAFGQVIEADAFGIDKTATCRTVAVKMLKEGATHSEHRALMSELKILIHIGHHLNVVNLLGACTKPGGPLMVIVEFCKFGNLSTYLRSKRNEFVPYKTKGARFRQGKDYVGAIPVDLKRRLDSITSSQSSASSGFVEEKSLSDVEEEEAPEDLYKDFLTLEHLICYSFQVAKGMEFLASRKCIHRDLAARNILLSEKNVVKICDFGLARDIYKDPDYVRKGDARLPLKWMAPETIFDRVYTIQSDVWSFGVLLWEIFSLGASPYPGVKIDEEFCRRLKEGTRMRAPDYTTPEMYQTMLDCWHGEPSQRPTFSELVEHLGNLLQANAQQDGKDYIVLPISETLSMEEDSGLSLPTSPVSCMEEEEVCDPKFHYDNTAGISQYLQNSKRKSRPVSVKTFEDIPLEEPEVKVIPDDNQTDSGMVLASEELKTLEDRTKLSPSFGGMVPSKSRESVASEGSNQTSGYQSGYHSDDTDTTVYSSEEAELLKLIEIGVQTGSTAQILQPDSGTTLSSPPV

## Cc1cc(C)c2c(Nc3ncnc4c3sc3nc(C)cc(C)c34)csc2n1 [N-(4,6-dimethylthieno[2,3-b]pyridine)-7,9-dimethylpyrido[30,20:4,5]thieno[3,2-d]pyrimidin-4-amine (9d)]
  IC50: 2.6 µM
